Results on one compound are retold here after US4256751A, “Tetrahydroisoquinoline derivatives” (Tanabe Seiyaku Co., Ltd., priority 1978, dated 1981).

As usually defined, the inhibition is the percentage by which the read-out fell short of the control.

Data set [1] deals with ADP-induced platelet aggregation. The data set is described as follows: Platelet aggregation-inhibiting activity (ADP-induced, diluted platelet-rich plasma). Type of data set: cell-based, dog (male beagle). To be noted: Canis lupus familiaris, test compound solution 100 μg/ml, added 2 minutes before ADP, beagle PRP, read-out: Platelet aggregation inhibiting activity (percentage inhibition of the second wave of ADP-induced platelet aggregation). Here is the method: The bottom layer was further centrifuged at 1000×g for 15 minutes to give platelet-poor plasma (PPP) as the supernatant solution.

The next data set concerns ACE. The data set is described as follows: ACE-inhibitory activity in vivo (pressor response to angiotensin I). Also on record: species or system rat (normotensive). The note with it: 0.1 mg/kg intravenously; angiotensin I 300 ng/kg i.v.; anesthetized normotensive rats. Here is the method: Normotensive rats weighing 300-400 g were anesthetized with urethane(1.5 g/kg, s.c.), and angiotensin I (300 ng/kg) was injected into the femoral vein of the rats. The pressor response to angiotensin I was measured with a pressure transducer connected to the carotid artery. Then, a test compound was injected intravenously thereto at a dose of 0.1 mg/kg, and angiotensin I (300 ng/kg) was further injected intravenously at intervals. The ACE-inhibitory activity of the test compound was estimated from the pressor responses to angiotensin I which were obtained before and after intraveous injection of the test compound.

Data set [2] has as its system spontaneously hypertensive rats (SHR). The data set is described as follows: Hypotensive activity in SHR. The note with it: 50 mg/kg orally. It is filed as in vivo, rat (SHR). Here is the method:
A test compound (dose: 50 mg/kg) suspended in an aqueous carboxymethylcellulose solution was administered orally to spotaneously hypertensive rats (SHR) fasted for a day. The systolic blood pressure of the rats was measured by the tail plethysmographic technique (The Journal of Laboratory and Clinic Medicine 78(1971), page 957). The hypotensive activity of the test compound was estimated from the decreased level of blood pressure.

The subject of the next data set is mice. The data set is described as follows: Oral toxicity in mice. Type of data set: in vivo. The note with it: 3 g/kg. An excerpt: . Moreover, the compound (I) of the present invention decreases aggregation of blood platelets and can be used to improve blood flow disturbances or other vascular diseases due to the formation of platelet aggregates (i.e., thrombus). Since the hypertensive disease is largely found in the aged subjects who show an increased tendency to capillary fragility or thrombosis, therefore, the compound (I) of the invention is useful to prevent, in addition to the treatment of hypertension, the genesis of thrombosis and other occlusive vascular diseases of such subjects. Further, the toxicity of the compound (I) is considerably low. […]

As to `C[C@H](CS)C(=O)N1Cc2ccccc2C[C@H]1C(=O)O` [(3S)-2-[(2S)-3-mercapto-2-methyl-propionyl]-1,2,3,4-tetrahydroisoquinoline-3-carboxylic acid], the inhibition at 100 µg/mL in data set [1] is 86%. Also, in the data set with ACE, the “ACE-inhibitory activity in vivo (percentage inhibition of ACE activity in vivo)” value is listed as 90%. Moreover, in data set [2], the “Hypotensive activity in SHR: Duration of action” value was over 6 h. Besides, the “Hypotensive activity in SHR: Decrease in blood pressure” value in data set [2] (systolic, tail plethysmographic) is given as “ca. 20%”. Also, in the data set on mice, the “mortality five days after oral administration” value was “no mouse died”.
